Measurements reported in US20260008746A1, “CATIONIC LIPID COMPOUND WITH HIGH EFFICIENCY, LOW TOXICITY AND STABLE EXPRESSION, AND COMPOSITION COMPRISNG SAME” (HANGZHOU TIANLONG PHARMACEUTICAL CO., LTD, priority 2023, published 2026).
Where “and” joins values, the source holds several entries; their conditions need not be identical. Identical values can stand only once.

Columns and labels:
293T cells [1] = assay: Fluorescent detection of Fluc-mRNA (cell transfection efficiency of LNP formulations); assay type: cell-based; conditions: for Relative light unit (RLU): LNP formulation containing 0.3 μg Fluc-mRNA, 96-well plate, 24 hours; for Multiples (YK-101): RLU of YK-101 / RLU of named substance; for Multiples (YK-107): RLU of YK-107 / RLU of named substance; for Multiples (YK-108): RLU of YK-108 / RLU of named substance; for fluorescence absorption value, times that of HHMA: RLU of named substance / RLU of HHMA; for fluorescence absorption value, times that of Lipofectamine 3000: RLU of named substance / RLU of Lipofectamine 3000; for Ratio relative to SM-102: RLU of named substance / RLU of SM-102; for Fluc-mRNA expression signal intensity, times that of compound 21: RLU of named substance / RLU of compound 21; for fluorescence absorption value, times that of compound 23: RLU of named substance / RLU of compound 23
Method: (§1) Cell recovery and passage: 293T cells were recovered, cultured in a culture dish, and passaged to the required number of cells.
(§2) Seeding plate: The cells in the culture dish were digested and counted. Cells were spread in a 96-well plate at 10,000 cells per well and in a 12-well plate at 150,000 cells per well. Cells were cultured overnight until the cells adhered to the wall.
Cell recovery and passage: the method was the same as in Example 3.
Seeding plate: the method was the same as in Example 3.
An LNP formulation containing 0.3 μg of Fluc-mRNA (the carrier components of the LNP formulation were cationic lipid, neutral lipid, structured lipid and polymer-conjugated lipid with a molar ratio of 49:10:39.5:1.5, wherein the cationic lipid was listed in Table 1) was added to the cell culture medium of a 96-well plate, and further incubated for 24 hours. The corresponding reagent was added according to the instructions of the Gaussia Luciferase Assay Kit, and the fluorescence expression intensity of each well was detected by an IVIS fluorescence detection system. This test verified the transfection efficiencies of LNP formulations in cells, see Tables 3-6 for specific test results.

293T cells [2] = assay: Cell survival rate determination (CCK-8); assay type: cell-based; conditions: for Cell survival rate (%): LNP formulation containing 1.5 μg Fluc-mRNA, 24 hours, CCK-8, absorbance at 450 nm; for cell survival rate lower than that of YK-101: cell survival rate of YK-101 minus that of named substance; for cell survival rate lower than that of YK-107: cell survival rate of YK-107 minus that of named substance; for cell survival rate lower than that of YK-108: cell survival rate of YK-108 minus that of named substance
Method: as §1, §2
An LNP formulation containing 1.5 μg of Fluc-mRNA (the cater component of the LNP formulation were cationic lipid, neutral lipid, structured lipid and polymer-conjugated lipid with a molar ratio of 49: 10: 39.5: 1.5, wherein the cationic lipid was listed in Table 1) and the formulation of Lipofectamine 3000 were added to the cell culture medium of a 96-well plate, and further cultivated for 24 hours. 10 μL of CCK-8 solution was then added to each well, and the culture plate was incubated in an incubator for 1 hour. The absorbance at 450 nm was measured by a microplate reader.

SMILES | Relative light unit (RLU) (293T cells [1]) | Multiples (YK-101) (293T cells [1]) | Multiples (YK-107) (293T cells [1]) | Multiples (YK-108) (293T cells [1]) | fluorescence absorption value, times that of HHMA (293T cells [1]) | fluorescence absorption value, times that of Lipofectamine 3000 (293T cells [1]) | Ratio relative to SM-102 (293T cells [1]) | Fluc-mRNA expression signal intensity, times that of compound 21 (293T cells [1]) | fluorescence absorption value, times that of compound 23 (293T cells [1]) | Cell survival rate (%) (293T cells [2]) | cell survival rate lower than that of YK-101 (293T cells [2]) | cell survival rate lower than that of YK-107 (293T cells [2]) | cell survival rate lower than that of YK-108 (293T cells [2]) | cell transfection activity, times that of YK-112 (293T cells [1])
CCCCCCCCCCOC(=O)CCCN(CCCCCC(=O)OCCC(CCCCCC)CCCCCC)C[C@H](O)CO [YK-116, 3-hexylnonyl 6-(4-(decyloxy)-4-oxobutyl)(((S)-2,3-dihydroxypropyl)amino)hexanoate] | 1321284 RLU | 15.39 | 16.92 | 18.66 | 0.65 times | 1.23 times | 0.86 | 0.95 times | 1.02 times | 67.96% | 22.16% | 22.49% | 21.90% | 
CCCCCCCCCCOC(=O)CCCN(CCCCCC(=O)OCCC(CCCCCC)CCCCCC)CCC(C)(C)O [YK-119, 3-hexylnonyl 6-(4-(decyloxy)-4-oxobutyl)((3-hydroxy-3-methylbutyl)amino)hexanoate] | 8557 RLU |  |  |  | 0.0042 times | 0.0080 times | 0.0056 | 0.0062 times | 0.0066 times | 80.27% | 9.85% | 10.18% | 9.59% | 
CCCCCCCCC(CCCCCCCC)COC(=O)CCCCCN(CCO)CCCCCC(=O)OCCSCCCC [YK-113, 2-octyldecyl 6-(6-(2-(butylthio)ethoxy)-6-oxohexyl)((2-hydroxyethyl)amino)hexanoate] | 151694 RLU | 134.05 |  | 162.57 | 0.07 times | 0.14 times | 0.10 | 0.11 times | 0.12 times | 43.05% | 47.07% and 40% | 47.40% and 40% | 46.81% and 40% | up to 75 times
CCCCCCC(CCCCCC)CCOC(=O)CCCCCN(CCO)CCCCCC(=O)OCCSCCCC [YK-112, 3-hexylnonyl-6-(6-(2-(butylthio)ethoxy)-6-oxohexyl)((2-hydroxyethyl)amino)hexanoate] | 2012 RLU |  |  |  | 0.0010 times | 0.0019 times | 0.0013 | 0.0014 times | 0.0016 times | 9.82% | 80.30% and 80% | 80.63% and 80% | 80.04% and 80% | 
CCCCCCC(CCCCCC)CCOC(=O)CCCCCN(CCO)CCCCCC(=O)OCCCSSCCCCC [YK-110] | 271783 RLU | 74.82 | 82.28 | 90.74 | 0.13 times | 0.25 times | 0.18 | 0.20 times | 0.21 times | 42.85% | 40% | 40% | 40% | 
